Drawing on patent EP4578856A1, “HETEROCYCLIC COMPOUND” (Ubience Inc., priority 2022, dated 2024), this text covers inhibition for 13 compounds.

This test deals with ROCK2 protein (Homo sapiens, UniProt O75116). The test is described as follows: Degradation inducing activity of ROCK2 protein in HUVEC cells, Western blotting (Simple Western JESS). Format: cell-based. The arrangement: endogenous in cells; host or cells: HUVEC (ATCC CRL-1730). As to conditions: HUVEC, 24 h; for inhibition at 1 µM: degradation rate at 1 µM; for inhibition at 10 µM: degradation rate at 10 µM. The protocol: In vitro degradation inducing activity of ROCK2 protein of compounds of Examples was evaluated by Western Blotting (WB).
By a test compound, 10 mM DMSO solution was prepared, which was used as a 10 µM test compound solution. Further, the solution was diluted 10-fold with DMSO to prepare a 1 mM solution, which was used as a 1 µM test compound solution.
HUVEC cells (ATCC: CRL-1730, Lot: 70041472) were cultured in F-12K medium supplemented with 10% FBS, 0.1 mg/mL heparin, […] Endothelial Cell Growth Supplement (ECGS, Corning), and 1% Penicillin/Streptomycin. The HUVEC cells seeded in a 24 well plate at 50,000 cells/well/1 mL were cultured for 24 hours, and then 1 µL of DMSO or a test compound solution was added thereto and treatment was performed for 24 hours. Cells were harvested and lysed for 20 minutes on ice using lysis buffer (Cell Signaling Technology, Cat#9803) supplemented with protease inhibitor cocktail (Sigma, Cat#P8340; Roche, Cat#P11873580001), and phosphatase inhibitor cocktail (Sigma, Cat#P5726, P0044). The lysate was sonicated (15 seconds, amplitude 30%, 1 cycle) and then centrifuged at 12500 rpm for 15 minutes at 4°C. The protein concentration was determined by BCA assay kit (Thermo Fisher Scientific, Cat#23225).
The western blotting was performed using Simple Western JESS (protein simple). A cell lysis sample (protein amount; about 1.06 µg) was loaded on a plate of Simple Western JESS, and the expression level of ROCK2 protein was detected using a 12-230 kDa Wes Separation Module (Protein simple, Cat#SM-WO04), an Anti-Rabbit Detection Module for Wes (Protein simple, Cat#DM-001), and a Total Protein Detection Module for Wes (Protein simple, Cat#DM-TP01). As the primary antibody, a material obtained by diluting ROCK2 (D1B1) Rabbit mAb (Cell Signaling Technology, Cat#9029) at 1:10 was used, and as the secondary antibody, a material obtained by diluting HRP-labeled anti-rabbit IgG antibody (Cell Signaling Technology, Cat#7074S) at 1:100 was used. The expression level of the target protein was standardized using the total protein amount loaded as a reference. The standardized expression level data of the control (DMSO) was taken as 100%, and the degradation rate (%) was calculated from the average standardized expression level data of the test compound. All analysis steps, such as data detection and analysis, are fully automated.
With respect to the ROCK2 protein degradation rate of the test compound, the protein degradation rates (%) at the evaluation concentrations were set to A ≥ 75%, 75% > B ≥ 50%, 50% > C ≥ 25%, and D < 25%, and are shown in Table 7.

Bounds are passed on as bounds.

Sequence of ROCK2 protein (O75116 whole entry): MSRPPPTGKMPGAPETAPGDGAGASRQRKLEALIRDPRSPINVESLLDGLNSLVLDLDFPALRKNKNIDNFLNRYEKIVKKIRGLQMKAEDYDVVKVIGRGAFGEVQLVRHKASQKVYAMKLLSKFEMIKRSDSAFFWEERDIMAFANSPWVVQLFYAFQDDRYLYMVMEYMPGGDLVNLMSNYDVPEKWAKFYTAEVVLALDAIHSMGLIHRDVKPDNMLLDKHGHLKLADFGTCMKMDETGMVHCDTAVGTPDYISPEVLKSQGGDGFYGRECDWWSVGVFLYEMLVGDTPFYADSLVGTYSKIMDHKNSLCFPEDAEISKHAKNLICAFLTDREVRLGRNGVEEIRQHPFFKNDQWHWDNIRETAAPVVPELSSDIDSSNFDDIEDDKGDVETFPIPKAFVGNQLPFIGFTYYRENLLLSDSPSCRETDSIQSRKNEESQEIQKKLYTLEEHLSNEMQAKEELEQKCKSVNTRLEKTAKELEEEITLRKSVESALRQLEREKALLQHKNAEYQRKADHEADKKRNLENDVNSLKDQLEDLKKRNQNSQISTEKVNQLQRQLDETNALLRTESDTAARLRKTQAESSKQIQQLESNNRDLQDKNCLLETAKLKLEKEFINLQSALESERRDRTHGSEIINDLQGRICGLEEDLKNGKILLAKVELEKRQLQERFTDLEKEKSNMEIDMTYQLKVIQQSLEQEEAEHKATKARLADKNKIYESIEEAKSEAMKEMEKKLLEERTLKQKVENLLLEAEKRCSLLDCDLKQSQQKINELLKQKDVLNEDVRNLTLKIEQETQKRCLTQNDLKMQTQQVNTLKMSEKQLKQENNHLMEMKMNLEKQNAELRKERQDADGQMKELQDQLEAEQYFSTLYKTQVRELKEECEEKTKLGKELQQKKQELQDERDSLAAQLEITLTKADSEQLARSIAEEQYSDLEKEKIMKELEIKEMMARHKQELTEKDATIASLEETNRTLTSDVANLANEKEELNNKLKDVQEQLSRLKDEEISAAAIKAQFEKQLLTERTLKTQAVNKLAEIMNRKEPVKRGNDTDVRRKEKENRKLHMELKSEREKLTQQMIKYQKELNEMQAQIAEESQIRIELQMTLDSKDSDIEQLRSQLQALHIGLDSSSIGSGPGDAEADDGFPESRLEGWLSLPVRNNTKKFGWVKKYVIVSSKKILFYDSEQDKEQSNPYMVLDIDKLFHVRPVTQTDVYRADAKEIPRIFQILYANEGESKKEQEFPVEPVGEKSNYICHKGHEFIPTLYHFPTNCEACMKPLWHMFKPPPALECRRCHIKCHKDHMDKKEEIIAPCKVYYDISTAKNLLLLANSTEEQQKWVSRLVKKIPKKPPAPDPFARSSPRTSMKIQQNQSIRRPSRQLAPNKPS

In turn, `C[C@@H]1CN(CC(=O)N2CC(C)(C)c3ncc(Cc4ccc(F)cc4)cc32)[C@@H](CN(C)CCOCCN[C@H](C)c2ccc(C(=O)Nc3ccncc3)cc2)CN1` [Example 1, 4-((R)-1-((2-(2-((((2R,5R)-1-(2-(6-(4-Fluorobenzyl)-3,3-dimethyl-2,3-dihydro-1H-pyrrolo[3,2-b]pyridin-1-yl)-2-oxoethyl)-5-methylpiperazin-2-yl)methyl)(methyl)amino)ethoxy)ethyl)amino)ethyl)-N-(pyridin-4-yl)benzamide] displayed an inhibition at 1 µM of 25 to 50% and an inhibition at 10 µM not below 75%.
For the compound `COC[C@H]1CN[C@H](C)CN1CC(=O)N1CC(C)(C)c2nc(CN(C)CCOCCOCCOCCOCCOCCN[C@H](C)c3ccc(C(=O)Nc4ccncc4)cc3)c(Cc3ccc(F)cc3)cc21` [Example 26, 4-((R)-1-(6-(4-Fluorobenzyl)-1-(2-((2R,5R)-2-(methoxymethyl)-5-methylpiperazin-1-yl)acetyl)-3,3-dimethyl-2,3-dihydro-1H-pyrrolo[3,2-b]pyridin-5-yl)-2-methyl-5,8,11,14,17-pentaoxa-2,20-diazadocosan-21-yl)-N-(pyridin-4-yl)benzamide], the inhibition at 1 µM fell in the range of 50 to 75% and the inhibition at 10 µM was not below 75%.
`C[C@@H]1CN(CC(=O)N2CC(C)(C)c3ncc(Cc4ccc(F)cc4)cc32)[C@@H](CN(C)CCOCCOCCOCCOCCOCCOCCNC[C@@H](C(=O)Nc2ccc3cnccc3c2)c2ccccc2)CN1` [Example 20, (S)-1-((2R,5R)-1-(2-(6-(4-Fluorobenzyl)-3,3-dimethyl-2,3-dihydro-1H-pyrrolo[3,2-b]pyridin-1-yl)-2-oxoethyl)-5-methylpiperazin-2-yl)-N-(isoquinolin-6-yl)-2-methyl-25-phenyl-5,8,11,14,17,20-hexaoxa-2,23-diazahexacosan-26-amide] yielded an inhibition at 1 µM of 50 to 75% and an inhibition at 10 µM not below 75%.
For `COC[C@H]1CN[C@H](C)CN1CC(=O)N1CC(C)(C)c2nc(CN(C)CCOCCOCCOCCOCCN[C@H](Cc3cccc(F)c3)C(=O)Nc3ccc(-c4ccncc4)cc3)c(Cc3ccc(F)cc3)cc21` [Example 32, (R)-18-(3-Fluorobenzyl)-1-(6-(4-fluorobenzyl)-1-(2-((2R,5R)-2-(methoxymethyl)-5-methylpiperazin-1-yl)acetyl)-3,3-dimethyl-2,3-dihydro-1H-pyrrolo[3,2-b]pyridin-5-yl)-2-methyl-N-(4-(pyridin-4-yl)phenyl)-5,8,11,14-tetraoxa-2,17-diazanonadecan-19-amide], in that order: less than 25% and not below 75%.
For `COC[C@H]1CN[C@H](C)CN1CC(=O)N1CC(C)(C)c2ncc(Cc3ccccc3OCCOCCOCCOCCOCCOCCOCCN[C@H](C)c3ccc(C(=O)Nc4ccncc4)cc3)cc21` [Example 69, 4-((R)-23-(2-((1-(2-((2R,5R)-2-(Methoxymethyl)-5-methylpiperazin-1-yl)acetyl)-3,3-dimethyl-2,3-dihydro-1H-pyrrolo[3,2-b]pyridin-6-yl)methyl)phenoxy)-6,9,12,15,18,21-hexaoxa-3-azatricosan-2-yl)-N-(pyridin-4-yl)benzamide], in that order: not below 75% and not below 75%.
`COC[C@H]1CN[C@H](C)CN1CC(=O)N1CC(C)(C)c2ncc(Cc3cccc(OCCOCCOCCOCCN[C@H](C)c4ccc(C(=O)Nc5ccncc5)cc4)c3)cc21` [Example 45, 4-((R)-14-(3-((1-(2-((2R,5R)-2-(Methoxymethyl)-5-methylpiperazin-1-yl)acetyl)-3,3-dimethyl-2,3-dihydro-1H-pyrrolo[3,2-b]pyridin-6-yl)methyl)phenoxy)-6,9,12-trioxa-3-azatetradecan-2-yl)-N-(pyridin-4-yl)benzamide]: the inhibition at 1 µM was less than 25% and the inhibition at 10 µM fell in the range of 50 to 75%.
`COC[C@H]1CN[C@H](C)CN1CC(=O)N1CC(C)(C)c2nc(CN(C)CCOCCOCCOCCOCCNC[C@@H](C(=O)Nc3ccc4cnccc4c3)c3ccccc3)c(Cc3ccc(F)cc3)cc21` [Example 39, (S)-1-(6-(4-Fluorobenzyl)-1-(2-((2R,5R)-2-(methoxymethyl)-5-methylpiperazin-1-yl)acetyl)-3,3-dimethyl-2,3-dihydro-1H-pyrrolo[3,2-b]pyridin-5-yl)-N-(isoquinolin-6-yl)-2-methyl-19-phenyl-5,8,11,14-tetraoxa-2,17-diazaicosan-20-amide] yielded an inhibition at 1 µM of 25 to 50% and an inhibition at 10 µM not below 75%.
`COC[C@H]1CN[C@H](C)CN1CC(=O)N1CC(C)(C)c2ncc(Cc3ccccc3OCCOCCNC[C@@H](C(=O)Nc3ccc4cnccc4c3)c3ccccc3)cc21` [Example 78, (S)-N-(Isoquinolin-6-yl)-3-((2-(2-(2-((1-(2-((2R,5R)-2-(methoxymethyl)-5-methylpiperazin-1-yl)acetyl)-3,3-dimethyl-2,3-dihydro-1H-pyrrolo[3,2-b]pyridin-6-yl)methyl)phenoxy)ethoxy)ethyl)amino)-2-phenylpropanamide] had an inhibition at 1 µM of less than 25% and an inhibition at 10 µM not below 75%.
For the compound `COC[C@H]1CN[C@H](C)CN1CC(=O)N1CC(C)(C)c2nc(CN(C)CCOCCOCCOCCOCCN[C@H](C)c3ccc(C(=O)Nc4ccncc4)cc3)c(Cc3ccc(F)cc3)cc21` [Example 25, 4-((R)-1-(6-(4-Fluorobenzyl)-1-(2-((2R,5R)-2-(methoxymethyl)-5-methylpiperazin-1-yl)acetyl)-3,3-dimethyl-2,3-dihydro-1H-pyrrolo[3,2-b]pyridin-5-yl)-2-methyl-5,8,11,14-tetraoxa-2,17-diazanonadecan-18-yl)-N-(pyridin-4-yl)benzamide], the inhibition at 1 µM was not below 75% and the inhibition at 10 µM is not below 75%.
In turn, `COC[C@H]1CN[C@H](C)CN1CC(=O)N1CC(C)(C)c2nc(CN(C)CCOCCOCCOCCOCCOCCOCCNC[C@@H](C(=O)Nc3ccc4cnccc4c3)c3ccccc3)c(Cc3ccc(F)cc3)cc21` [Example 41, (S)-1-(6-(4-Fluorobenzyl)-1-(2-((2R,5R)-2-(methoxymethyl)-5-methylpiperazin-1-yl)acetyl)-3,3-dimethyl-2,3-dihydro-1H-pyrrolo[3,2-b]pyridin-5-yl)-N-(isoquinolin-6-yl)-2-methyl-25-phenyl-5,8,11,14,17,20-hexaoxa-2,23-diazahexacosan-26-amide] came in with an inhibition at 1 µM of 50 to 75% and an inhibition at 10 µM not below 75%.
`C[C@@H]1CN(CC(=O)N2CC(C)(C)c3ncc(Cc4ccc(F)cc4)cc32)[C@@H](CN(C)CCOCCNC[C@@H](C(=O)Nc2ccc3cnccc3c2)c2ccccc2)CN1` [Example 15, (S)-3-((2-(2-((((2R,5R)-1-(2-(6-(4-Fluorobenzyl)-3,3-dimethyl-2,3-dihydro-1H-pyrrolo[3,2-b]pyridin-1-yl)-2-oxoethyl)-5-methylpiperazin-2-yl)methyl)(methyl)amino)ethoxy)ethyl)amino)-N-(isoquinolin-6-yl)-2-phenylpropanamide]: the inhibition at 1 µM is less than 25% and the inhibition at 10 µM is not below 75%.
For `C[C@@H]1CN(CC(=O)N2CC(C)(C)c3ncc(Cc4ccc(F)cc4)cc32)[C@@H](CN(C)CCOCCOCCOCCOCCOCCN[C@H](Cc2cccc(F)c2)C(=O)Nc2ccc(-c3ccncc3)cc2)CN1` [Example 12, (R)-21-(3-Fluorobenzyl)-1-((2R,5R)-1-(2-(6-(4-fluorobenzyl)-3,3-dimethyl-2,3-dihydro-1H-pyrrolo[3,2-b]pyridin-1-yl)-2-oxoethyl)-5-methylpiperazin-2-yl)-2-methyl-N-(4-(pyridin-4-yl)phenyl)-5,8,11,14,17-pentaoxa-2,20-diazadocosan-22-amide], in that order: less than 25% and 25 to 50%.
Compound `C[C@@H]1CN(CC(=O)N2CC(C)(C)c3ncc(Cc4ccc(F)cc4)cc32)[C@@H](CN(C)CCOCCOCCOCCOCCOCCOCCOCCN[C@H](Cc2cccc(F)c2)C(=O)Nc2ccc(-c3ccncc3)cc2)CN1` [Example 14, (R)-27-(3-Fluorobenzyl)-1-((2R,5R)-1-(2-(6-(4-fluorobenzyl)-3,3-dimethyl-2,3-dihydro-1H-pyrrolo[3,2-b]pyridin-1-yl)-2-oxoethyl)-5-methylpiperazin-2-yl)-2-methyl-N-(4-(pyridin-4-yl)phenyl)-5,8,11,14,17,20,23-heptaoxa-2,26-diazaoctacosan-28-amide] had an inhibition at 1 µM of 25 to 50% and an inhibition at 10 µM not below 75%.
